The source of these data is patent US5939098A, “Cancer treatment with temozolomide” (Schering Corporation, priority 1997, dated 1999).

On the set-up of series [1]: species or system patient. The following applies: human, in vivo. How it is done:
Prior to this invention it was generally believed that administering temozolomide to a patient having food in their stomach or to a patient who consumed food too soon before or after administering of the temozolomide would interfere with the bioiavailability of the temozolomide. A fasting of about 8 hours, before administering of temozolomide and 4 hours after receiving temozolomide was believed necessary. Since two twelve-hour fasting periods per day would obviously be unacceptable, it was believed that temozolomide could be administered a maximum of once per day. […] Therefore long fasting periods before and after administration of temozolomide are not necessary. Dosing with temozolomide more than once per day may improve the effectiveness of the treatment. This is so because increasing the frequency of dosing may deplete the O^6 -aklylguanine DNA alkyltransferase more effectively and maintain the depletion of this repair enzyme, resulting therefore in better effectiveness of the drug.

Series [2] in a line: side effects of temozolomide administration. It is filed as in vivo, patient. To be noted: can be alleviated by an anti-emetic. The procedure: It is preferred that the anti-emetic Ondansetron be given p.o. in a dose of about 8 mg about 30 minutes before temozolomide administration. Of course other anti-emetics such as Hasaldol, Benadryl, and Ativan may also be used as needed.

For series [3], the system named is advanced melanoma. To be noted: patients having advanced melanoma; Newlands ES, et al. Br J Cancer 65 (2), 1992; cited from earlier work.
Series [4] has as its system advanced melanoma. The following applies: patients with advanced melanoma; Journal of Clinical Oncology, Vol 13, No. 4, 1995, pp 910-913; cited from earlier work.

Consider `Cn1nnc2c(C(N)=O)ncn2c1=O` [temozolomide, 3,4-dihydro-3-methyl-4-oxoimidazo-[5,1-d]1,2,3,4-tetrazin-8-carboximide], for which the “Area Under Curve (AUC) for those fed as % of AUC for those fasted” value in series [1] was “about 90%”. Besides, in series [2], the “common, but tolerable side effect” value was “nausea and vomiting”. For the same molecule, the “clinical responses achieved, % of patients” value in series [3] was 17%. For the same molecule, the “clinical response achieved, % of patients” value in series [4] is given as 21%.
